Reference: patent publication US11357806B2, “Method of isolating sphingolipids from cordyceps and their use” (Macau University of Science and Technology, priority 2015, dated 2022)
pIC50: −log10 of the molar value. Like-named read-outs stand apart in the source and are kept apart here.

How the values were obtained:
[1] = tested on: LPS-induced splenic lymphocytes; assay: LPS-induced primary splenocyte proliferation model (MTT, immunosuppressive activity assay); format: cell-based, ICR mice; settings: Mus musculus, Splenic lymphocyte, LPS 2.5 mg/L, 48 h culture, read-out: IC50 (concentration that reduced cell proliferation by 50%)
Procedure: (§1) Male ICR mice (Weight, 10 to 22 g) were provided by the Comparative Medicine Center of Yangzhou University. The animal studies were approved by the Animal Ethics Committee of China Pharmaceutical University. The animals were cared for according to the regulations of the Animal Committee.
(§2) ICR mice were killed by cervical dislocation, and the spleens were removed aseptically. Mononuclear cell suspensions were prepared and re-suspended in RPMI 1640 medium (containing 10% FBS). The resulting splenic lymphocytes suspensions (4×10^6 cells/mL) were cultured in 96-well plate (100 μL suspensions each well). In the control group, 100 μL 10% FBS in RPMI1640 was added into each well (five replicates of wells). In the LPS or Con A model group, 100 μL LPS or Con A (2.5 mg/L of final concentration) was added into each well (five replicates of wells). For the positive drug treatment group, 50 μL of LPS or Con A (2.5 mg/L of final concentration) and 50 μL of FTY720 with a set of final concentrations (0.001, 0.003, 0.01, 0.03, 0.1, 0.3, 1, 3 and 10 μM) were added into each well. In the test group, 50 μL of LPS or Con A (2.5 mg/L of final concentration) and 50 μL of the four SPL fractions with a set of final concentrations were added into each well. […] Then the OD490 readings were taken with a microplate reader (Bio Tek, Tigan Street Winooski, Vt., USA). […]

[2] = tested on: Con A-induced splenic lymphocytes; assay: Con A-induced primary splenocyte proliferation model (MTT, immunosuppressive activity assay); format: cell-based, ICR mice; settings: Mus musculus, Splenic lymphocyte, Con A 2.5 mg/L, 48 h culture, read-out: IC50 (concentration that reduced cell proliferation by 50%)
Procedure: as §1, §2

**Q.** `CCCCCCCCc1ccc(CCC(N)(CO)CO)cc1` [FTY720] was tested. Which IC50 [1] did it give?
**A.** Its IC50 is 0.15 µg/mL.

**Q.** What about the pIC50 ([1]; value in brackets) of the same compound?
**A.** Its pIC50 is 6.37.

**Q.** And the IC50 [2]?
**A.** Its IC50 is 0.11 µg/mL.

**Q.** And the pIC50 ([2]; value in brackets)?
**A.** The pIC50 was 6.51.
